Measurements reported in publication PMC10142028, “Influence of Molecular Structure and Physicochemical Properties of Immunosuppressive Drugs on Micelle Formulation Characteristics and Cutaneous Delivery” (Pharmaceutics, 2023).
Converted amounts (≈) assume the structure as drawn. “Also recorded” adds a separate entry of the source. Like-named read-outs stand apart in the source and are kept apart here.

What was measured:
[1] = Drug solubility in water and in aqueous solution of TPGS; format: physicochemical; conditions: for Improvement of drug water solubility by addition of 50 mg/mL TPGS: TPGS 50 mg/mL solution vs water; for solubility at 24 h: thermodynamic from solid; for Aqueous solubility: in words, measured experimentally
Procedure: The solutions were kept at room temperature during a 24 h period of stirring. The samples were then centrifuged and the supernatant was collected and diluted in ACN prior to a UHPLC-MS/MS analysis. All the samples were prepared in triplicate.

skin proteins = tested on: skin proteins; parameters: method as in PMID 18524871; conditions: compared to TAC; cited from earlier work
[2] = source not given; cited from earlier work
[3] = Stability of the micelle solution after storage at 4 °C for 5 months; format: physicochemical; conditions: Formulation 6 (target 5 mg/mL), followed for 5 months
Procedure: Stability of the micelle solution was evaluated after storage at 4 °C for 5 months. Drug content and micelle size were determined at a series of time points (day 1, and then after 1, 2, 3, 4, and 5 months).

skin (porcine or human) = tested on: skin (porcine or human); parameters: method as in PMID 16176283, PMID 14698574; conditions: independent of skin origin (porcine or human) and formulation composition; cited from earlier work
Porcine ear skin [4] = test: Skin delivery in vitro under infinite dose conditions and cutaneous biodistribution (Franz diffusion cells); conditions: micelle solution 0.2%, 12 h; for Drug deposition in skin regions (comparison): porcine skin; for Permeation across the skin (concentration, under the limit of quantification): receptor phase
Procedure: (§1) Porcine ear skin was used for skin delivery studies and was supplied by a local abattoir (CARRE; Rolle, CH). Briefly, skin samples were processed with a Zimmer air dermatome (Münsingen, Switzerland) to obtain pieces with a thickness of ∼800 µm. Hair was removed carefully from the skin surface using clippers. Circular disks of 30 mm were then punched out (Berg & Schmid HK 500; Urdorf, Switzerland) and stored at −20 °C until use, for a maximum period of 3 months.
(§2) Porcine skin samples were mounted in Franz diffusion cells (Milian SA; Meyrin, Switzerland) with a formulation contact area of 2 cm^2. In the donor compartment, the optimal micelle solution 0.2% was applied under infinite dose conditions (500 µL/cm^2) during 12 h. The receptor compartment was filled with 10 mL of phosphate buffered saline at pH 7.4 containing 1% BSA. The receiver phase was stirred at 250 rpm and maintained at 32 °C throughout the experiment. […] After the experiment, 1 mL of this phase was withdrawn to quantify drug permeation. Samples were diluted in ACN to precipitate BSA. After centrifugation at 5000 rpm at 4 °C during 15 min, the permeation samples were analysed by UHPLC-MS/MS. Each skin sample was carefully cleaned with a cotton swab and a wash solution to remove the residual formulation from skin surface.
(§3) At the end of the experiment, a small area, 0.8 cm^2, was punched out from the 2 cm^2 skin samples. These skin discs were snap-frozen in isopentane cooled by liquid nitrogen, followed by cryotoming (Thermo Scientific CryoStarTM NX70; Reinach, Switzerland) to obtain two lamellae with a thickness of 20 µm and 19 lamellae with a thickness of 40 μm. […] Drug deposited in each lamella was extracted in 300 µL of ACN overnight with continuous stirring at room temperature. The extraction samples were centrifuged at 5000 rpm for 10 min and diluted prior to UHPLC-MS/MS analysis.

[5] = Drug content determination of micelle formulations (UHPLC-UV); format: physicochemical; conditions: for Drug content of Formulation 5: Formulation 5, corresponds to approximately 2.3 mg/mL; for Water solubility reached by polymeric micelle formulation: corresponding to approximately 4.5 mg/mL
Procedure: Micelle formulations were prepared using the thin-film hydration method. […] The acetone was slowly removed by rotary evaporation (Büchi Vac V-513 Rotavapor®; Flawil, Switzerland) until the formation of a uniform thin-film, which was left under the hood overnight and then hydrated with 4 mL of ultrapure water. After equilibration for 2 h, the micelle solution was centrifuged at 10,000 rpm for 15 min (Eppendorf Centrifuge 5804; Hamburg, Germany) to remove excess drug, and the supernatant was carefully collected.
The micelle formulation was optimized in order to reach a high drug loading. […] The formulation with the highest drug content, which satisfied reproducibility and stability criteria, was chosen for the subsequent in vitro release and skin delivery studies. Drug loading was determined by UHPLC-UV.
The amount of drug loaded in the micelles was quantified by UHPLC-UV. To ensure the complete destruction of the micelles and the release of encapsulated drug, samples were diluted in ACN prior to analysis. (1) Drug contentmgdrug/mLformulation=mass of drug in the formulationmg/volume of the formulationmL (2) Drug loadingmgdrug/gpolymer=drug in the formulationmg mL^−1/copolymer in the formulationg mL^−1 (3) Incorporation efficiency%=mass of drug incorporated in micellesmg/mass of drug introducedmg×100

Porcine ear skin [6] = conditions: pig, 12 h, 0.2 %, pH 7.4
Procedure: as §1, §2, §3

[7] = aqueous solution of TPGS (50 mg/mL), aqueous with cosolvent or surfactant or cyclodextrin, Drug solubility at TPGS concentration (33 mM or 50 mg/mL), room temperature, 24 h
[8] = aqueous solution of TPGS (50 mg/mL), aqueous with cosolvent or surfactant or cyclodextrin, Solubility on simple addition of the drug in the aqueous solution of TPGS, TPGS 50 mg/mL
[9] = water, water, room temperature, 24 h stirring, read-out: Drug solubility in water

Row | SMILES | Improvement of drug water solubility by addition of 50 mg/mL TPGS [1] [fold] | solubility at 24 h [1, 7] [µM] | solubility at 24 h [1, 8] [µM] | Aqueous solubility [1] | solubility at 24 h [1, 9] [µM] | Affinity/binding to skin components (comparison) (skin proteins) | Ionizable [2] | Stability of Formulation 6 in terms of drug content [3] | Permeation across the skin (comparison) (skin (porcine or human)) | Drug deposition in skin regions (comparison) (Porcine ear skin [4]) | Permeation across the skin (concentration, under the limit of quantification) (Porcine ear skin [4]) [ng/mL] | Drug content of Formulation 5 [5] [mM] | Water solubility reached by polymeric micelle formulation [5] [µM] | Solubility on simple addition of the drug in the aqueous solution of TPGS ([1]; TPGS 50 mg/mL) [µM] | Permeation across the skin (concentration, under the limit of quantification) (Porcine ear skin [6]) [ng/mL]
1 | CC[C@@H]1/C=C(\C)C[C@H](C)C[C@H](OC)[C@H]2O[C@@](O)(C(=O)C(=O)N3CCCC[C@H]3C(=O)O[C@H](/C(C)=C/[C@@H]3CC[C@H](Cl)[C@H](OC)C3)[C@H](C)[C@@H](O)CC1=O)[C@H](C)C[C@@H]2OC [PIM, pimecrolimus] | 1943 | 330 ± 31.2 (≈ 268 µg/mL) | 300 (≈ 243 µg/mL) | Poor | 0.17 ± 0.02 (≈ 0.138 µg/mL) | stronger affinity with the components of the upper layers of the skin compared to TAC; also recorded: higher capacity-binding to other skin proteins | No | remained stable during the 5 months | lower than TAC | high percentage of PIM was delivered in the stratum corneum; also recorded: higher in the viable epidermis in comparison to SIR and TAC; also recorded: significantly higher in the upper region of the skin (20–180 µm) | < 3 | 2.8 | 5600 |  | 
2 | CO[C@H]1C[C@@H]2CC[C@@H](C)[C@@](O)(O2)C(=O)C(=O)N2CCCC[C@H]2C(=O)O[C@H]([C@H](C)C[C@@H]2CC[C@@H](O)[C@H](OC)C2)CC(=O)[C@H](C)/C=C(\C)[C@@H](O)[C@@H](OC)C(=O)[C@H](C)C[C@H](C)/C=C/C=C/C=C/1C [SIR, sirolimus] | 147 | 1210 ± 124 (≈ 1110 µg/mL) |  | Poor | 8.24 ± 0.22 (≈ 7.53 µg/mL) |  | No | became unstable after 4 months |  |  |  | 2.5 | 4900 | 1200 | < 3
3 | C=CC[C@@H]1/C=C(\C)C[C@H](C)C[C@H](OC)[C@H]2O[C@@](O)(C(=O)C(=O)N3CCCC[C@H]3C(=O)O[C@H](/C(C)=C/[C@@H]3CC[C@@H](O)[C@H](OC)C3)[C@H](C)[C@@H](O)CC1=O)[C@H](C)C[C@@H]2OC [TAC, tacrolimus] | 3184 | 637 ± 73.5 (≈ 512 µg/mL) | 600 (≈ 482 µg/mL) | Poor | 0.2 ± 0.05 (≈ 0.161 µg/mL) |  | No | remained stable during the 5 months |  | large percentage of skin deposition in the dermis | < 3 | 2.9 | 5600 |  | 
